Molecular target: Cytochrome P450 3A4 (Homo sapiens, UniProt P08684)
Test: CYP Inhibition Assay
Excerpt: The final concentrations of DMSO and acetonitrile were equal to or less than 0.1%.

Sequence of Cytochrome P450 3A4 (P08684 whole entry): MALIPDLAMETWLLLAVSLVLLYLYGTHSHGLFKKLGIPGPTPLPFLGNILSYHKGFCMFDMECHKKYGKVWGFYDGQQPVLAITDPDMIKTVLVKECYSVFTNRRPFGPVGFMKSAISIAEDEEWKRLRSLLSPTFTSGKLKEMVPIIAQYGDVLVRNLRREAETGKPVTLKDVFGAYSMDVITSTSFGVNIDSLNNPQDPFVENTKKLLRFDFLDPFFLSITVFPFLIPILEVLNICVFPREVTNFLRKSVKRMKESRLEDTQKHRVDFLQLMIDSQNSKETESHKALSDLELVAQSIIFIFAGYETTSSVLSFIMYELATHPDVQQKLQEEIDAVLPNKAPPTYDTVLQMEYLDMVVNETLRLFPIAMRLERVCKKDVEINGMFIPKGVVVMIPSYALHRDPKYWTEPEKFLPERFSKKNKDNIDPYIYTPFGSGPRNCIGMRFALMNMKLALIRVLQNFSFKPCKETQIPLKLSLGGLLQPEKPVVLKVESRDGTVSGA

IC50: 279 µM
Compound: CC(=O)CCC(=O)Nc1ncc2cc1O[C@H](C)c1cc(F)ccc1C(=O)N(C)Cc1nn(C)c(C#N)c1-2 [US12338251, Compound 3]
